The text below walks through data of article PMC4428071, “Structural basis for epitope masking and strain specificity of a conserved epitope in an intrinsically disordered malaria vaccine candidate” (Scientific Reports, 2015).

The target in the experiment is 6D8 scFv. The experiment in a line: Isothermal titration calorimetry (ITC) of MSP2 and peptides into 6D8 scFv. It counts as binding, mouse. The note with it: ITC into 6D8 scFv; 20 mM sodium phosphate, 150 mM NaCl, pH 7.4, 25°C; scFv 20 µM, titrant from 200 µM stocks; error estimates from replicate titrations against 6D8 scFv and mAb (n = 3–5); limit of determinable affinities approx. 5 nM. The source says: The interaction between 6D8 and MSP2, was examined further using isothermal titration calorimetry (ITC). […] Full-length recombinant MSP2 binds 6D8 scFv with lower affinity, permitting quantification by ITC. Even though 6D8 recognizes a fully conserved epitope in MSP2, the affinities of 6D8 scFv for full-length 3D7 and FC27 MSP2 differ by as much as 5-fold (Fig. 3C,D). To explore the basis of this strain-specificity, we synthesized peptides encompassing the minimal 6D8 epitope and extending C-terminally into the variable region. […] Identical affinities were observed when 6D8 IgG was used in place of the scFv (Fig. S4).
The affinity of 6D8 IgG and scFv for synthetic peptides and recombinant MSP2 was determined by ITC (Microcal ITC-200, GE Healthcare) and SPR (Biacore T200, GE Healthcare) using a Mouse Antibody Capture kit (GE Healthcare) (SI Materials and methods). Antibody binding to lipid-tethered MSP2 was assessed SPR using an L1 chip (GE Healthcare). Vesicles of POPC containing 1 mol % DOGS-NTA were adsorbed onto the chip, and loaded with Ni^2+ and then FC27 MSP2–6His. […]
MSP2 peptides were purified on a reverse-phase C18 column (Zorbax, 10 x 300 mm) using a linear gradient of 5 to 40% of solvent B (90% acetonitrile / 9.9% water / 0.1% TFA) against solvent A (0.1% TFA in water) over 40 min. The purity of MSP2 peptides was assessed by mass spectrometry (LC-MS). […]

The term Kd denotes a measure of binding affinity in units of concentration. Turning to Ac-NAYNMSIRR-NH2 [MSP2_14-22], the Kd is roughly 5 nM.
